What was measured:
[1] = system: non-small cell lung cancer cell line H460; assay: In vitro human cancer cell line cytotoxicity (proliferation) assay in H460, CellTiter-Glo, 72 hours; format: cell-based; conditions: H460 cells, DMSO condition (no AKR1C3 inhibitor), read-out: CTG H460: Avg IC50 (nM) [Assay Condition: DMSO]
Procedure: Biological Example 1. In Vitro Human Cancer Cell Line Cytotoxicity Assay
IC50 values in nanomolar reported here were derived from in vitro proliferation assay data in non-small cell lung cancer cell line H460.
(§1) Specifically, exponentially growing cells were seeded at density of 3×10^3 cells per well in 96-well plate and incubated at 37° C. in 5% CO2, 95% air and 100% relative humidity for 24 hours before adding compounds. Compounds were solubilized in 100% DMSO at 10 mM. Compounds were added to the plate using Tecan D300e® digital Dispenser. After drug addition, the plates were incubated for an additional 72 hours at 37° C. in 5% CO2, 95% air and 100% relative humidity. At the end of the incubation, cell viability was quantified with CellTiter-Glo® assay.

[2] = system: non-small cell lung cancer cell line H460; assay: H460 proliferation assay in the presence of 3 uM ASP9521 (AKR1C3 specific inhibitor); format: cell-based, human; conditions: H460 cells, CellTiter-Glo, 72 hours, in the presence of 3 uM ASP9521 added 4 hours prior to compounds; read-out: CTG H460: Avg IC50 (nM) [Assay Condition: ASP9521]
Procedure: as §1
To further confirm that compounds were activated by human AKR1C3, H460 proliferation assay were also performed in the presence of 3 uM […], an AKR1C3 specific inhibitor. ASP9521 were added to the plates 4 hours prior to the addition of compounds.

Compound	IC50 [1]	IC50 [2]	IC50 ([1]; Homo sapiens, NCI-H460, 72 h)
CN(C(=O)c1cccc(Oc2c([N+](=O)[O-])ccc3c2CCC3OP(=O)(N2CC2)N2CC2)c1)c1cnn(C)c1 (racemic) [Example 251]	< 10 nM	1090 nM	–
CN(C)C(=O)c1cc(Oc2c([N+](=O)[O-])ccc3c2CCC3OP(=O)(N2CC2)N2CC2)ccn1 (racemic) [Example 253]	< 10 nM	697 nM	–
O=C(c1cc(Oc2c([N+](=O)[O-])ccc3c2CCC3OP(=O)(N2CC2)N2CC2)ccc1F)N1CCC1 (racemic) [Example 256]	< 10 nM	1240 nM	–
O=[N+]([O-])c1ccc2c(c1Oc1ccc(-c3ccc(F)cn3)cc1)CCC2OP(=O)(N1CC1)N1CC1 (racemic) [Example 276]	< 10 nM	1340 nM	–
Cc1cccc(-c2ccc(Oc3c([N+](=O)[O-])ccc4c3CCC4OP(=O)(N3CC3)N3CC3)cc2)n1 (racemic) [Example 277]	< 10 nM	1530 nM	–
Cc1ccnc(-c2ccc(Oc3c([N+](=O)[O-])ccc4c3CCC4OP(=O)(N3CC3)N3CC3)cc2)n1 (racemic) [Example 280]	< 10 nM	1300 nM	–
Cc1cncc(-c2ccc(Oc3c([N+](=O)[O-])ccc4c3CCC4OP(=O)(N3CC3)N3CC3)cc2)n1 (racemic) [Example 281]	< 10 nM	787 nM	–
O=[N+]([O-])c1ccc2c(c1Oc1ccc(-c3ncccn3)cc1)CCC2OP(=O)(N1CC1)N1CC1 (racemic) [Example 282]	< 10 nM	1240 nM	–
Cn1cc(-c2cccc(Oc3c([N+](=O)[O-])ccc4c3CCC4OP(=O)(N3CC3)N3CC3)c2)cn1 (racemic) [Example 299]	< 10 nM	744 nM	–
O=[N+]([O-])c1ccc2c(c1Oc1ccnc(C3CC3)c1)CCC2OP(=O)(N1CC1)N1CC1 (racemic) [Example 312]	< 10 nM	312 nM	–
O=[N+]([O-])c1ccc2c(c1Oc1cncc(C3CC3)c1)CCC2OP(=O)(N1CC1)N1CC1 (racemic) [Example 315]	< 10 nM	679 nM	–
O=[N+]([O-])c1ccc2c(c1Oc1cccc(-c3ccc(F)cn3)c1)CCC2OP(=O)(N1CC1)N1CC1 (racemic) [Example 320]	< 10 nM	2230 nM	–
CC(C)(C)c1cncc(Oc2c([N+](=O)[O-])ccc3c2CCC3OP(=O)(N2CC2)N2CC2)c1 (racemic) [Example 324]	< 10 nM	445 nM	–
O=C1CCCCN1c1cccc(Oc2c([N+](=O)[O-])ccc3c2CCC3OP(=O)(N2CC2)N2CC2)c1 (racemic) [Example 404]	–	1020 nM	–
O=C1COCCN1c1cccc(Oc2c([N+](=O)[O-])ccc3c2CCC3OP(=O)(N2CC2)N2CC2)c1 (racemic) [Example 405]	–	871 nM	–
O=c1ccccn1-c1cccc(Oc2c([N+](=O)[O-])ccc3c2CCC3OP(=O)(N2CC2)N2CC2)c1 (racemic) [Example 406]	–	1320 nM	–
CC1(C)CN(c2cccc(Oc3c([N+](=O)[O-])ccc4c3CCC4OP(=O)(N3CC3)N3CC3)c2)C(=O)O1 (racemic) [Example 416]	< 10 nM	275 nM	–
O=[N+]([O-])c1ccc2c(c1Oc1ccc(F)c(-n3cc(F)cn3)c1)CCC2OP(=O)(N1CC1)N1CC1 (racemic) [Example 418]	< 10 nM	1210 nM	–
O=[N+]([O-])c1ccc2c(c1Oc1ccc(-n3cc(F)cn3)cc1)CCC2OP(=O)(N1CC1)N1CC1 (racemic) [Example 419]	< 10 nM	1180 nM	–
O=[N+]([O-])c1ccc2c(c1Oc1cccc(OC(F)(F)F)c1)CCC2OP(=O)(N1CC1)N1CC1 (racemic) [Example 447]	< 10 nM	547 nM	–
CC(C)Oc1cccc(Oc2c([N+](=O)[O-])ccc3c2CCC3OP(=O)(N2CC2)N2CC2)c1 (racemic) [Example 451]	< 10 nM	1030 nM	–
O=[N+]([O-])c1ccc2c(c1Oc1cccc(OC(F)F)c1)CCC2OP(=O)(N1CC1)N1CC1 (racemic) [Example 454]	< 10 nM	559 nM	–
O=[N+]([O-])c1ccc2c(c1Oc1cccc(OC3CCC3)c1)CCC2OP(=O)(N1CC1)N1CC1 (racemic) [Example 459]	< 10 nM	845 nM	–
O=[N+]([O-])c1ccc2c(c1Oc1cccc(OC3CCCC3)c1)CCC2OP(=O)(N1CC1)N1CC1 (racemic) [Example 460]	< 10 nM	1230 nM	–
CSc1ccc(Oc2c([N+](=O)[O-])ccc3c2CCC3OP(=O)(N2CC2)N2CC2)cc1 (racemic) [Example 461]	< 10 nM	547 nM	–

Compound	IC50 [1]	IC50 [2]	IC50 ([1]; Homo sapiens, NCI-H460, 72 h)
O=[N+]([O-])c1ccc2c(c1Oc1cccc(OC3COC3)c1)CCC2OP(=O)(N1CC1)N1CC1 (racemic) [Example 465]	< 10 nM	705 nM	–
O=[N+]([O-])c1ccc2c(c1Oc1cccc(OCC(F)(F)F)c1)CCC2OP(=O)(N1CC1)N1CC1 (racemic) [Example 473]	< 10 nM	329 nM	–
O=[N+]([O-])c1ccc2c(c1Oc1ccc(F)c(OC(F)F)c1)CCC2OP(=O)(N1CC1)N1CC1 (racemic) [Example 475]	< 10 nM	509 nM	–
COc1ccn(Cc2cc(C(C)OP(=O)(N3CC3)N3CC3)ccc2[N+](=O)[O-])c(=O)c1 (single isomer, unassigned) [Example 2]	–	> 10000 nM	≥ 100 nM
COc1ccnc(OCc2cc(C(C)OP(=O)(N3CC3)N3CC3)ccc2[N+](=O)[O-])c1 (single isomer, unassigned) [Example 3]	–	> 3410 nM	≥ 100 nM
CN(C)C(=O)c1ccc(Oc2c([N+](=O)[O-])ccc3c2CCC3OP(=O)(N2CC2)N2CC2)cc1 (single isomer, unassigned) [Example 17]	–	758 nM	10 to 50 nM
CN(C)C(=O)c1ccc(Oc2c([N+](=O)[O-])ccc3c2CCC3OP(=O)(N2CC2)N2CC2)cc1 (single isomer, unassigned) [Example 18]	< 10 nM	501 nM	–
O=[N+]([O-])c1ccc2c(c1Oc1ccc(-c3ccccc3)cc1)CCC2OP(=O)(N1CC1)N1CC1 (single isomer, unassigned) [Example 19]	–	593 nM	< 10 nM
O=[N+]([O-])c1ccc2c(c1Oc1ccc(-c3ccccc3)cc1)CCC2OP(=O)(N1CC1)N1CC1 (single isomer, unassigned) [Example 20]	< 10 nM	1190 nM	–
O=[N+]([O-])c1ccc2c(c1Oc1ccc(-c3ccc(F)cc3)c(F)c1)CCC2OP(=O)(N1CC1)N1CC1 (single isomer, unassigned) [Example 27]	–	1170 nM	< 10 nM
O=[N+]([O-])c1ccc2c(c1Oc1ccc(-c3ccc(F)cc3)c(F)c1)CCC2OP(=O)(N1CC1)N1CC1 (single isomer, unassigned) [Example 28]	< 10 nM	870 nM	–
O=[N+]([O-])c1ccc2c(c1Oc1cccc(-c3ccccc3)c1)CCC2OP(=O)(N1CC1)N1CC1 (single isomer, unassigned) [Example 30]	–	1510 nM	< 10 nM
O=[N+]([O-])c1ccc2c(c1Oc1cccc(-c3ccccc3)c1)CCC2OP(=O)(N1CC1)N1CC1 (single isomer, unassigned) [Example 31]	< 10 nM	1550 nM	–
Cn1cc(-c2ccc(Oc3cc4c(cc3[N+](=O)[O-])CCC4OP(=O)(N3CC3)N3CC3)cc2)cn1 (single isomer, unassigned) [Example 521]	–	1950 nM	–
O=C(c1cccc(Oc2c([N+](=O)[O-])ccc3c2CCC3OP(=O)(N2CC2)N2CC2)c1)N1CC(F)(F)C1 (stereo not shown) [Example 235]	–	717 nM	–
O=C(c1cccc(Oc2c([N+](=O)[O-])ccc3c2CCC3OP(=O)(N2CC2)N2CC2)c1)N1CCC(F)(F)C1 (stereo not shown) [Example 239]	–	1060 nM	–
O=C(c1cccc(Oc2c([N+](=O)[O-])ccc3c2CCC3OP(=O)(N2CC2)N2CC2)c1)N1CCCC1 (stereo not shown) [Example 240]	–	1150 nM	–
O=C(c1cccc(Oc2c([N+](=O)[O-])ccc3c2CCC3OP(=O)(N2CC2)N2CC2)c1)N1CCC(F)(F)C1 (stereo not shown) [Example 242]	–	1270 nM	–
O=C(c1cccc(Oc2c([N+](=O)[O-])ccc3c2CCC3OP(=O)(N2CC2)N2CC2)c1)N1CCC(F)(F)CC1 (stereo not shown) [Example 244]	–	834 nM	–
O=C(c1cccc(Oc2c([N+](=O)[O-])ccc3c2CCC3OP(=O)(N2CC2)N2CC2)c1)N1CCC1 (stereo not shown) [Example 246]	–	522 nM	–
O=[N+]([O-])c1ccc2c(c1Oc1cccc(-c3ncccn3)c1)CCC2OP(=O)(N1CC1)N1CC1 (stereo not shown) [Example 301]	–	3730 nM	–
Cc1noc(-c2cccc(Oc3c([N+](=O)[O-])ccc4c3CCC4OP(=O)(N3CC3)N3CC3)c2)n1 (stereo not shown) [Example 304]	–	2130 nM	–
O=C1OCCN1c1cccc(Oc2c([N+](=O)[O-])ccc3c2CCC3OP(=O)(N2CC2)N2CC2)c1 (stereo not shown) [Example 407]	–	380 nM	–
O=C1COCCN1c1cccc(Oc2c([N+](=O)[O-])ccc3c2CCC3OP(=O)(N2CC2)N2CC2)c1 (stereo not shown) [Example 411]	10 to 50 nM	–	–
O=C1CCCN1c1cccc(Oc2c([N+](=O)[O-])ccc3c2CCC3OP(=O)(N2CC2)N2CC2)c1 (stereo not shown) [Example 413]	–	1180 nM	–
